Earlier results on 1 substance are cited in patent publication US7795220B2, “Conformationally constrained parathyroid hormones with alpha-helix stabilizers” (The General Hospital Corporation, priority 2003, dated 2010).

The target in this data set is T1, P1R (Homo sapiens, UniProt Q03431).
T1 sequence (Q03431 27-593): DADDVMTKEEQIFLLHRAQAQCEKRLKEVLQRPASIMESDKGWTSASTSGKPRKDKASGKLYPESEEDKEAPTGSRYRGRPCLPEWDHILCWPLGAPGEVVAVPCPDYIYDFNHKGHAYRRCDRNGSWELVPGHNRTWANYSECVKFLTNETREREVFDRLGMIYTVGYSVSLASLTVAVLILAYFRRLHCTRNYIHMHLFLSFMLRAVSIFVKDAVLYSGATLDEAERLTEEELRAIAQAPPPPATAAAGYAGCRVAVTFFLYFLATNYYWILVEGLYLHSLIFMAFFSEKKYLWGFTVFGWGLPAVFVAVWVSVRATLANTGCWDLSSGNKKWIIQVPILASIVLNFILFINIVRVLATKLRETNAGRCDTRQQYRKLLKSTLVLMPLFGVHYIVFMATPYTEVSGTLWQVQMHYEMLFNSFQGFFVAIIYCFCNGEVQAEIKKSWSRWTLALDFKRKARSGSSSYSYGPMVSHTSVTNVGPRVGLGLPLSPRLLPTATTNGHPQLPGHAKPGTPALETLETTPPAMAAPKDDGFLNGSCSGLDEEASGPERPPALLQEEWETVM
The note with it: literature; read-out: cAMP-signaling potency (EC50); cited from earlier work.

As to PTH(1-34), the EC50 was roughly 2 nM.
